Reference: patent publication US7723576B2, “Method of selectively producing male or female sterile plants” (Syngenta Limited, priority 2003, dated 2010)

What was measured:
[1] = tested on: transgenic plants comprising a PAT gene under operable control of the plastocyanin promoter region; assay: Foliar spray on control transgenic tobacco with PAT gene under plastocyanin promoter, no deacetylase gene; assay type: in vivo, Nicotiana tabacum var. Samsun; settings: rates in excess of 2 kg/ha; no deacetylase co-expressed
[2] = tested on: wheat plants with PAT gene under plastocyanin promoter region; assay: Application to wheat plants expressing PAT under a plastocyanin promoter region; assay type: in vivo; settings: rates of at least 2 kg/ha
Description: Firstly, the PAT gene is expressed under operable control of a plastocyanin promoter region so that it is expressed substantially only in the green tissues of the plant. […] Thus a critical feature of the constructs described in the foregoing examples which are used to provide the plants of the current example is that the PAT gene which provides the resistance trait is expressed under operable control of a promoter region which provides for expression in substantially only the green tissues. A characteristic of such a useful promoter region is that it should express PAT in such a way that it protects adequately all the […] floral tissues from foliarly applied DL phosphinothricin whilst, at the same time, providing only a minimal level of PAT expression in the floral tissue itself and especially low in those parts targeted for conditional sterility. With PAT expressed under operable control of the barley plastocyanin promoter region this condition appears to be met since substantially all of the L-phosphinothricin which is sprayed enters via the leaves is intercepted and converted to non-phytotoxic N-acetyl-L-phosphinothricin before it translocated to developing floral tissues. […]

[3] = tested on: conditionally female sterile tobacco plants; assay: Foliar spray on conditionally female sterile transgenic tobacco (stig1-deacetylase plus plastocyanin-PAT); assay type: in vivo, Nicotiana tabacum var. Samsun
Description: Tobacco leaf discs are transformed with the recombinant binary vectors using methods similar to those described in Horsch et al (1985) Science, 227, 1229-1231. Many variations of the method may be used. The binary vector can be transformed into, for example, Agrobacterium tumefaciens strain LBA 4404 using the freeze thaw method of transformation. Tobacco transformation and whole plant regeneration is performed using Nicotiana tabacum var. Samsun according to protocols described by Draper et al (Plant Genetic Transformation, Blackwell Sci. Pub. 1989). Transformation events are selected on MS-media containing kanamycin or other suitable antibiotic. Alternatively selection is made on phosphinothricin. The presence of integrated transgenes is confirmed by PCR. Plants are regenerated and allowed to reach maturity and selfed on to produce seed. Northern and/or Western analysis is used to confirm tissue-specific expression of the deacetylase. The plants are self-fertile but have the condition of conditional female sterility. Seeds of the T1 generation are planted out. Once plantlets have grown to a sufficient size they are tested by PCR for the presence of transgene. PCR positive plants are transferred to the greenhouse. These plants are fully fertile in the absence of exogenously applied phosphinothricin. A subset of these (putatively) conditionally sterile plants are treated with DL-phosphiothricin or L phosphinothricin in various amounts and at varying growth stages. Such treatments are carried out on the T1 plants confirmed as PCR positive for the deacetylase gene, or, equally, such treatments are carried out directly on plants of the To generation (which are vegetatively cloned so that untreated clones of each event may be set aside for seed production). […] For example, phosphinotricin is applied as a foliar spray, prior to or during the early stages of flower formation, at rates usually between 0.25 and 20 kg/ha. Undamaged appearing plants are selected and pollen from the treated plants is collected and viability is tested. […]

[4] = tested on: conditionally male sterile tobacco plants; assay: Foliar spray on conditionally male sterile transgenic tobacco (TA29-deacetylase plus plastocyanin-PAT); assay type: in vivo
Description: Tobacco plant material is transformed, via Agrobacterium, with vector and transgenic plants are regenerated in a similar manner to that described in the previous example. The plants produced are self-fertile but are conditionally male sterile. Seeds of the T1 generation are planted out into soil. Once plantlets have grown to a sufficient size they are tested by PCR for the presence of transgene. PCR positive plants are transferred to the greenhouse. These plants are fully fertile in the absence of exogenously applied herbicide. A subset of these putatively conditionally sterile T1 plants, or, alternatively plantlets of T0 ‘events’ (direct regenerants from transformation) are treated with phosphinothricin in various amounts and at varying growth stages. Where To plants are treated they are vegetatively cloned so that untreated siblings of the events are set aside for seed production. […] For example, phosphinothricin is applied as a foliar spray, prior to or during the early stages of flower formation, at rates usually between 0.25 and 20 kg/ha.
Pollen from the treated plants is collected and viability is tested. […] Pollen collected from some of the treated plants is tested and found to be malformed and non-viable. […]

| SMILES | reproductive tolerance to the herbicide [1] | reproductive tolerance to the herbicide [2] | seed production after treatment ([3]; foliar spray prior to or during early flower formation, selected lines) | vegetative damage (appearance of treated plants) ([3]; foliar spray prior to or during early flower formation, treatment rates of up to 5 kg/ha) | viable pollen production after treatment ([3]; same treatment conditions as for seed production) | pollen shed and viability after treatment ([4]; foliar spray prior to or during early flower formation, rates usually between 0.25 and 20 kg/ha) | female fertility of treated male infertile plants ([4]; pollinated with pollen from untreated non-transgenic or conditionally female-sterile tobacco) |
| --- | --- | --- | --- | --- | --- | --- | --- |
| CP(=O)(O)CCC(N)C(=O)O (stereo not drawn) [DL PPT, DL phosphinothricin] | substantially complete reproductive tolerance | substantially reproductively tolerant |  |  |  |  |  |
| CP(=O)(O)CC[C@H](N)C(=O)O (racemic) [phosphinothricin] |  |  | relatively little or no seed | relatively undamaged | near normal levels of viable pollen | no or relatively little pollen and/or pollen which is not viable | remain female fertile |
